The record followed here is patent publication US20260285879A1, “CDK INHIBITOR AND CRYSTAL FORM OF PHARMACEUTICALLY ACCEPTABLE SALT THEREOF, AND USE THEREOF” (priority 2023, published 2026).

SMILES strings stand for the structures. Like-named read-outs stand apart in the source and are kept apart here.

Holding throughout (format): physicochemical
Series [1] can be described thus: Accelerated stability testing. Particulars: 40° C.±2° C./75%±5% RH. The method, then:
(2) Accelerated Stability Testing
(§1) Packaging: Simulated the commercial packaging (using a pharmaceutical-grade low-density polyethylene bag as the inner packaging and a polyester/aluminum/polyethylene composite bag for pharmaceutical packaging as the outer packaging)
Investigation conditions: 40° C.±2° C./75%±5% RH

Series [2] can be described thus: Long-term stability testing. The note with it: 25° C.±2° C./60%±5% RH. The method, then: (3) Long-Term Stability Testing
as §1
Investigation conditions: 25° C.±2° C./60%±5% RH

Series [3] in a line: Competition experiment between anhydrates and solvates and solvent activity experiment.
Series [4] can be described thus: Dynamic vapor sorption (DVS). The method, then: 4. Dynamic Vapor Sorption (DVS)
Instrument: TA Instruments Q5000 SA
Detection method: 20 to 50 mg of the sample was placed in a tared sample basket and automatically weighed, and DVS testing was performed according to the parameters in Table 7: Step Time: 60 min; Equilibration Time per RH %: 1 hour; Total Gas Flow Rate: 200 sccm; Gradient mode: 0%-90%-0% humidity variation, with a humidity variation amount of 10% for each gradient level between 0% and 90%, and gradient endpoint was determined by dm/dt<0.01% maintained for 10 minutes.

A short description of series [5]: Stability test, placed open 7 days (HPLC purity, XRPD); grinding or crushing. Particulars: for remaining at […]: solid state, open, 7 days, read-out: Purity (Peak area %) 7 days. From the text: Subsequently, the samples after 7 days were respectively detected by HPLC and XRPD to determine their chemical and physical stabilities.
Series [6] can be described thus: Stress testing (high temperature, high humidity, illumination). Particulars: for remaining at […] / remaining at 336 h / remaining at 720 h: read-out: Content.
Where [7] appears, read: 60° C., 92.5% RH and 40° C./75% RH for 7 days.
Setting [8] is: High Humidity (92.5% RH), 7 days.
[9] abbreviates: High Humidity (92.5% RH), 14 days.
The mark [10] stands for this setting: High Humidity (92.5% RH), 30 days.
Where [11] appears, read: High Temperature (60° C.), 7 days.
Setting [12] is: High Temperature (60° C.), 14 days.
Where [13] appears, read: High Temperature (60° C.), 30 days.
[14] abbreviates: Illumination Testing 45001x ± 5001x, 7 days.
Where [15] appears, read: Illumination Testing 45001x ± 5001x, 14 days.
Where [16] appears, read: Illumination Testing 45001x ± 5001x, 30 days.

Regarding `CC(=O)c1c(C)c2cnc(Nc3ccc4c(c3)OC[C@@H]3CN(C5CCN(C)CC5)CCN43)nc2n(C2CCCC2)c1=O` [listing 1 of 4 here], the “Description Appearance” value in series [1] (0 months), in series [1] (1 month), in series [1] (2 months), in series [1] (3 months), in series [1] (6 months) and in series [2] (0 months) was “Yellow” in each case. For the same compound, the “Description Appearance” value in series [2] (3 months), in series [2] (6 months), in series [2] (9 months), in series [2] (12 months) and in series [2] (18 months) was “Yellow solid” throughout. Besides, the Total impurities came out at 0.84% in series [1] (0 months); 0.80% in series [1] (1 month); 0.82% in series [1] (2 months); 0.85% in series [1] (3 months); 0.77% in series [1] (6 months); 0.84% in series [2] (0 months). Also, the Total impurities in series [2] (3 months) was found to be 0.89%; in series [2] (6 months), 0.75%; in series [2] (9 months), 0.73%; in series [2] (12 months), 0.78%; in series [2] (18 months) it was 0.71%. In addition, the crystalline form entry in series [1] (0 months) is reported as “crystalline”; in series [1] (3 months) it was “Unchanged”; in series [1] (6 months) it was “Unchanged”; in series [2] (0 months) it was “crystalline”; in series [2] (3 months) it was “Unchanged”; in series [2] (6 months), “Unchanged”. Also, the crystalline form result in series [2] (9 months), in series [2] (12 months) and in series [2] (18 months) was “Unchanged” in each case. Besides, the loss on drying in series [1] (0 months) came out at 0.03%; in series [1] (1 month), 0.04%; in series [1] (2 months), 0.02%; in series [1] (3 months), 0.02%; in series [1] (6 months), 0.08%; in series [2] (0 months), 0.03%. Besides, the loss on drying in series [2] (3 months) was determined as 0.02%; in series [2] (6 months), 0.05%; in series [2] (9 months), 0.05%; in series [2] (12 months), 0.05%; in series [2] (18 months), 0.03%. Moreover, the remaining at 720 h in series [1] (solid, 75% rh storage, 1 month, read-out: Measured content) is 100%. Moreover, the remaining at 1440 h in series [1] (solid, 75% rh storage, 2 months, read-out: Measured content) was 101%. Further, the remaining at 2160 h in series [1] (solid, 75% rh storage, 3 months, read-out: Measured content) came out at 101%; in series [2] (solid, 60% rh storage, 3 months, read-out: Measured content), 101%. The remaining at 4320 h stood at 101% in series [1] (solid, 75% rh storage, 6 months, read-out: Measured content) and 101% in series [2] (solid, 60% rh storage, 6 months, read-out: Measured content). Further, the remaining at 6480 h in series [2] (solid, 60% rh storage, 9 months, read-out: Measured content) is 99.6%. In series [2] (solid, 60% rh storage, 12 months, read-out: Measured content), the remaining at 8640 h turned out to be 101%. In addition, in series [2] (solid, 60% rh storage, 18 months, read-out: Measured content), the remaining at 12960 h was determined as 98.7%.
For the compound `CC(=O)c1c(C)c2cnc(Nc3ccc4c(c3)OC[C@@H]3CN(C5CCN(C)CC5)CCN43)nc2n(C2CCCC2)c1=O` [listing 2 of 4 here], the “Test Results (crystalline form by XRPD)” value in series [3] (solvent activity experiment, 20% Trifluoroethanol (v/v)) is recorded as “crystalline form A-I”; in series [3] (solvent activity experiment, 50% Trifluoroethanol (v/v)), “crystalline form A-I”; in series [3] (solvent activity experiment, 80% Trifluoroethanol (v/v)), “crystalline form A-II”.
`CC(=O)c1c(C)c2cnc(Nc3ccc4c(c3)OC[C@@H]3CN(C5CCN(C)CC5)CCN43)nc2n(C2CCCC2)c1=O` [listing 3 of 4 here]: the “Test Results (crystalline form by XRPD)” value in series [3] (solvent activity experiment, 20% Dimethyl sulfoxide (v/v)) is given as “crystalline form A-I”; in series [3] (solvent activity experiment, 50% Dimethyl sulfoxide (v/v)), “crystalline form A-I”; in series [3] (solvent activity experiment, 80% Dimethyl sulfoxide (v/v)), “crystalline form A-I”.
`CC(=O)c1c(C)c2cnc(Nc3ccc4c(c3)OC[C@@H]3CN(C5CCN(C)CC5)CCN43)nc2n(C2CCCC2)c1=O` [listing 4 of 4 here]: the “Test Results (crystalline form by XRPD)” value was “crystalline form A-I” in series [3] (competition experiment, n-Butanol, room temperature) and “crystalline form A-I” in series [3] (competition experiment, n-Butanol/Anisole (v:v = 1:1), room temperature).
For the compound `CC(=O)c1c(C)c2cnc(Nc3ccc4c(c3)OC[C@@H]3CN(C5CCN(C)CC5)CCN43)nc2n(C2CCCC2)c1=O` [crystalline form A-I], the “hygroscopicity (DVS)” value in series [4] (0%-90% RH) is “non-hygroscopic”. Further, the “weight change (DVS)” value in series [4] (across 0%-90% RH) is “approximately 0.17%”. Besides, the “Purity (Peak area %) 0 day” value in series [5] (0 day) amounted to 99.16 Peak area %. Further, in series [5] (setting [7]), the “chemical stability (HPLC)” value is “chemically stable”. For the same compound, the “crystalline form by XRPD after 7 days under the three conditions” value in series [5] (setting [7]) was “remained unchanged”. For the same compound, in series [5] (grinding or crushing), the “crystalline form after grinding or crushing” value is reported as “remained unchanged”. Besides, the remaining at […] in series [5] (40° C./75% RH) was found to be 99.2%; in series [5] (60° C.) it was 99.2%; in series [5] (92.5% RH), 99.2%; in series [6] (setting [8]) it was 100%; in series [6] (setting [11]), 100%; in series [6] (setting [14]), 101%. The “Description Appearance” value in series [6] (0 Day), in series [6] (setting [8]), in series [6] (setting [9]), in series [6] (setting [10]), in series [6] (setting [11]) and in series [6] (setting [12]) was “Yellow” in each case. The “Description Appearance” value in series [6] (setting [13]), in series [6] (setting [14]), in series [6] (setting [15]) and in series [6] (setting [16]) was “Yellow” in each case. Also, the values for the crystalline form entry in series [6] (0 Day) and in series [6] (setting [16]) were “crystalline” and “Unchanged”, respectively. For the same compound, the results for the remaining at 336 h in series [6] (setting [9]), in series [6] (setting [12]) and in series [6] (setting [15]) were 99.6%, 101% and 100%, respectively. Besides, the remaining at 720 h in series [6] (setting [10]) was 101%; in series [6] (setting [13]), 100%; in series [6] (setting [16]) it was 100%. For the same compound, the Total impurities in series [6] (setting [14]) is recorded as 0.76%; in series [6] (setting [15]) it was 0.79%; in series [6] (setting [16]) it was 0.84%. The loss on drying in series [6] (setting [14]) worked out at 0.07%; in series [6] (setting [15]), 0.06%; in series [6] (setting [16]) it was 0.07%. Besides, the “change in the description” value in series [6] (all stress test conditions) is listed as “no significant change”. For the same compound, the “change in the hygroscopic weight gain” value in series [6] (high-humidity conditions) was “no significant change”. Further, the “relevant substances compared with 0 month” value in series [6] (high-humidity conditions) is reported as “remained unchanged”. The “change in relevant substances” value in series [6] (high-temperature conditions) is “no significant change”.
On to `CC(=O)c1c(C)c2cnc(Nc3ccc4c(c3)OC[C@@H]3CN(C5CCN(C)CC5)CCN43)nc2n(C2CCCC2)c1=O` [crystalline form F], for which, in series [4] (after DVS test), the “XRPD pattern / crystalline form after the DVS test” value is “did not change”. The “moisture absorption (DVS)” value in series [4] (at 80% RH) is recorded as “approximately 3.8%”.
